pIC50: −log10 of the molar value. Where a name gives a salt, the structure may show the parent alone. Where only a bound is given, the exact number is not on record here.

This test addresses T1, IRAK4 (Homo sapiens, UniProt Q9NWZ3).
T1 construct: His (N); TEV cleavage site (N)
T1 sequence (Q9NWZ3 1-460): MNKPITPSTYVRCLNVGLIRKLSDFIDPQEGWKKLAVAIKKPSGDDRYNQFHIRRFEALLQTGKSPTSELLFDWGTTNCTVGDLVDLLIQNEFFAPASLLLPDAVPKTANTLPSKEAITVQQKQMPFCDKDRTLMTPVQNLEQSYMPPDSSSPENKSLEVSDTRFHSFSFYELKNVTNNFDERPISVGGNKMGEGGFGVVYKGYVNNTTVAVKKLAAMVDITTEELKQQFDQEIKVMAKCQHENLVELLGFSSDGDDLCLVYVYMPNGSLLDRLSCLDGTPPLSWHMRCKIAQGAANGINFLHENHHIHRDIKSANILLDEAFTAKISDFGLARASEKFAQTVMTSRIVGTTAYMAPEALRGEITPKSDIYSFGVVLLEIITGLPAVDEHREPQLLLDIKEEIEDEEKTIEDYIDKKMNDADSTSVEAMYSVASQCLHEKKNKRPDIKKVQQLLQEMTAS
The test can be described thus: IRAK4 Enzymatic Assay. The note with it: His-TEV-IRAK4 20 ng/well, ATP 2 μM, STK1-biotin peptide 300 nM, 3 hours at 30° C., FlashPlate radioactivity. Type of test: biochemical. As to the method: IRAK4 is a human purified recombinant enzyme (His-TEV-IRAK1 (194-712)
IRAK4 hydrolyses ATP, autophosphorylates and phosphorylates a Serine/Threonine generic peptidic substrate (STK: 61ST1BLC from CisBio International based in Bagnols/Cèze FR).
Measurement of IRAK-4 inhibition is performed in streptavidin coated 384 well FlashPlate (PerkinElmer #SMP410A). His-TEV-IRAK4 (20 ng/well), ATP (2 μM, [^33P]ATP 0.25 μCi/well), STK1-biotin peptide (300 nM) and compounds in DMSO (range of concentrations from 20 μM to 1nM) or controls (2% DMSO) are incubated for 3 hours at 30° C. in assay buffer: Hepes pH7.0 50 mM, Fatty acid-free BSA 0.1%, Dithiothreitol DTT 2 mM, MgCl2 10 mM, EGTA 0.5 mM, Tween-20 0.01%, MnCl2 5 mM.
Kinase reaction is stopped by addition of EDTA. Supernatant is discarded, plates are washed three times with 150 mM NaCl and radioactivity is then measured in a Microbeta Trilux reader.
As a reminder, the pIC50 is the negative decadic logarithm of the IC50, by convention in mol/L. Take `Cn1cc(-c2cccc(-c3ncc(-c4cnn(CC(=O)N5CCCC5)c4)cn3)c2)cn1` [Example 9, 2-(4-{2-[3-(1-Methyl-1H-pyrazol-4-yl)-phenyl]-pyrimidin-5-yl}-pyrazol-1-yl)-1-pyrrolidin-1-yl-ethanone]: the negative-log IC50 (pIC50) is 6.00 to 7.00.

With `Cn1cc(-c2cccc(-c3ncc(-c4cnn(CCN5CCOCC5)c4)cn3)c2)cn1` [Example 10, 4-[2-(4-{2-[3-(1-Methyl-1H-pyrazol-4-yl)-phenyl]-pyrimidin-5-yl}-pyrazol-1-yl)-ethyl]-morpholine], the negative-log IC50 (pIC50) is 6.00 to 7.00.

Consider `CN(C)CCn1cc(-c2cnc(-c3cccc(-c4cnn(C)c4)c3)nc2)cn1` [Example 11, Dimethyl-[2-(4-{2-[3-(1-methyl-1H-pyrazol-4-yl)-phenyl]-pyrimidin-5-yl}-pyrazol-1-yl)-ethyl]-amine], for which the pIC50 was 5.30 to 6.00.

For `Cn1cc(-c2cccc(-c3ncc(-c4cnn(C5CCOC5)c4)cn3)c2)cn1` (centres unmarked) [Example 12, 2-[3-(1-Methyl-1H-pyrazol-4-yl)-phenyl]-5-[1-(tetrahydro-furan-3-yl)-1H-pyrazol-4-yl]-pyrimidine], the negative logarithm of the IC50 (pIC50) was 6.00 to 7.00.

For the compound `c1cc(-c2cnoc2)cc(-c2ncc(-c3cnn(C4CCNCC4)c3)cn2)c1` [Example 13, 2-(3-Isoxazol-4-yl-phenyl)-5-(1-piperidin-4-yl-1H-pyrazol-4-yl)-pyrimidine hydrochloride], the pIC50 was 6.00 to 7.00.

Consider `Cc1nn(C)cc1-c1cccc(-c2ncc(-c3cnn(C4CCNCC4)c3)cn2)c1` [Example 14, 2-[3-(1,3-Dimethyl-1H-pyrazol-4-yl)-phenyl]-5-(1-piperidin-4-yl-1H-pyrazol-4-yl)-pyrimidine hydrochloride], for which the pIC50 is 5.30 to 6.00.

On to `Cc1c(-c2cccc(-c3ncc(-c4cnn(C5CCNCC5)c4)cn3)c2)cnn1C` [Example 15, 2-[3-(1,5-Dimethyl-1H-pyrazol-4-yl)-phenyl]-5-(1-piperidin-4-yl-1H-pyrazol-4-yl)-pyrimidine hydrochloride], for which the negative-log IC50 (pIC50) was 6.00 to 7.00.

As for `FCC(CF)n1cc(-c2cccc(-c3ncc(-c4cnn(C5CCNCC5)c4)cn3)c2)cn1` [Example 16, 2-{3-[1-(2-Fluoro-1-fluoromethyl-ethyl)-1H-pyrazol-4-yl]-phenyl}-5-(1-piperidin-4-yl-1H-pyrazol-4-yl)-pyrimidine hydrochloride], the pIC50 was 6.00 to 7.00.

With `O=C(Cn1cc(-c2cccc(-c3ncc(-c4cnn(C5CCNCC5)c4)cn3)c2)cn1)N1CCCC1` [Example 17, 2-(4-{3-[5-(1-Piperidin-4-yl-1H-pyrazol-4-yl)-pyrimidin-2-yl]-phenyl}-pyrazol-1-yl)-1-pyrrolidin-1-yl-ethanone hydrochloride], the pIC50 was 5.30 to 6.00.

On to `c1cc(-c2cn[nH]c2)cc(-c2ncc(-c3cnn(C4CCNCC4)c3)cn2)c1` [Example 18, 5-(1-Piperidin-4-yl-1H-pyrazol-4-yl)-2-[3-(1H-pyrazol-4-yl)-phenyl]-pyrimidine hydrochloride], for which the pIC50 is > 7.00.

For `CCCn1cc(-c2cccc(-c3ncc(-c4cnn(C5CCNCC5)c4)cn3)c2)cn1` [Example 19, 5-(1-Piperidin-4-yl-1H-pyrazol-4-yl)-2-[3-(1-propyl-1H-pyrazol-4-yl)-phenyl]-pyrimidine hydrochloride], the pIC50 was 6.00 to 7.00.

On to `CC(C)n1cc(-c2cccc(-c3ncc(-c4cnn(C5CCNCC5)c4)cn3)c2)cn1` [Example 20, 2-[3-(1-Isopropyl-1H-pyrazol-4-yl)-phenyl]-5-(1-piperidin-4-yl-1H-pyrazol-4-yl)-pyrimidine hydrochloride], for which the pIC50 was 6.00 to 7.00.

As for `c1ccc(Cn2cc(-c3cccc(-c4ncc(-c5cnn(C6CCNCC6)c5)cn4)c3)cn2)cc1` [Example 21, 2-[3-(1-Benzyl-1H-pyrazol-4-yl)-phenyl]-5-(1-piperidin-4-yl-1H-pyrazol-4-yl)-pyrimidine hydrochloride], the pIC50 is 6.00 to 7.00.

On to `Cn1cc(-c2cccc(-c3ncc(-c4cnn(Cc5cccnc5)c4)cn3)c2)cn1` [Example 22, 2-[3-(1-Methyl-1H-pyrazol-4-yl)-phenyl]-5-(1-pyridin-3-ylmethyl-1H-pyrazol-4-yl)-pyrimidine], for which the pIC50 is 6.00 to 7.00.

Values taken from patent US9216991B2 (Ares Trading S.A., priority 2012, dated 2015).
